The values that follow come from patent US20090240027A1, “INTERMEDIATES FOR MACROCYCLIC COMPOUNDS” (Tranzyme Pharma Inc., priority 2003, published 2009).

Chain of human motilin receptor (O43193 whole entry): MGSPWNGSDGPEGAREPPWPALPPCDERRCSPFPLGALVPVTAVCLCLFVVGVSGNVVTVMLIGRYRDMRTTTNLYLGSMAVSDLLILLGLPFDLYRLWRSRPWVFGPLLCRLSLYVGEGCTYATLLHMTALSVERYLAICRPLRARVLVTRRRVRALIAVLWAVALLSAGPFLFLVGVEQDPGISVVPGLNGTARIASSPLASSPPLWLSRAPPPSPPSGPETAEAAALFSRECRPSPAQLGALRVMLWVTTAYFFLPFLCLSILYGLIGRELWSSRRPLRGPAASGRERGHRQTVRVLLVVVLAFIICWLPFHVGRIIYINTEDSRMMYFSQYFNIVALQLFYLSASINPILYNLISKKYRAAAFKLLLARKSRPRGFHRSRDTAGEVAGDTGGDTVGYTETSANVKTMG
T1 sequence (G1T803 1-400): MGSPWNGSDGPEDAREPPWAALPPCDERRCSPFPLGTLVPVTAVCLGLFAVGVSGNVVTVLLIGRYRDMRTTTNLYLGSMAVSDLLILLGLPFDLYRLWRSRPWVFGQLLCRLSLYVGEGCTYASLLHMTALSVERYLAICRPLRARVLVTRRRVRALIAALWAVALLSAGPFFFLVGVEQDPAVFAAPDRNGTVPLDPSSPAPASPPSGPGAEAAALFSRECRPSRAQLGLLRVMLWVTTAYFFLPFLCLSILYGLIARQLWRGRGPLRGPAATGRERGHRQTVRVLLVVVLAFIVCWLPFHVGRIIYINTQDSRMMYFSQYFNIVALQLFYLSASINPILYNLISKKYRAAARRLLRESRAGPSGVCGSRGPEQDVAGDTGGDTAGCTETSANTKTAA

The first assay concerns the target T1, motilin receptor (Oryctolagus cuniculus, UniProt G1T803).
T1 construct: Duodenal segments were vertically suspended in organ chambers; from tissue; host or cells: rabbit duodenum segments
Kind of assay: Rabbit duodenum contractility assay (Method B4).
Conditions: not given
As to the method: Compounds of the present invention have shown significant antagonist activity in this assay.
Rabbit Duodenum Contractility Assay
Duodenal segments were vertically suspended in organ chambers of 10 mL filled with Krebs buffer and connected to an isotonic force transducer, with a preload of 1 g. After a stabilization period, the muscle strips were challenged with 10^−4 M acetylcholine and washed. This was repeated until a stable maximal contraction was obtained (2-3 times), with an interval of at least 20 minutes.
After a stable base line was reached, test compounds were added to the bath. After 15 min incubation, a dose response to motilin was recorded by adding logarithmically increasing concentrations of motilin to the bath (final concentration 10^−9 to 10^−6 M). A blank experiment (no test compound present) was also performed. At the end of the dose response curve, a supramaximal dose of acetylcholine (10^−4 M) was given and this response was used as a reference (100% contraction).
The results of experiments at different concentrations of test compound were combined and analyzed to derive the pA2 value from the Schild plot.
Molecule `CCC[C@@H]1NC(=O)[C@@H](C(C)C)NC(=O)[C@@H](Cc2cccc(OC)c2)NCCOc2ccccc2CCCNC1=O` [Compound 165] showed a Kb of 67.6 nM.

A further assay deals with human motilin receptor (Homo sapiens, UniProt O43193). Description: Competitive radioligand binding assay (Method B1). The arrangement: purchased PerkinElmer 6110544; host or cells: CHO cells, stably transfected (membranes). As to conditions: Radioligand competitive binding assay, Method B1; values reported as ranges; read-out: Ki (binding activity). As to the method:
Competitive Radioligand Binding Assay (Motilin Receptor)
• Membranes were prepared from CHO cells stably transfected with the human motilin receptor and utilized at a quantity of 1.5 μg/assay point.
Final Test Concentrations (N=11) for Compounds:
Compounds were provided frozen on dry ice at a stock concentration of 10 mM diluted in 100% DMSO and stored at −20° C. until the day of testing. On the test day, compounds were allowed to thaw at room temperature and than diluted in assay buffer according to the desired test concentrations. Under these conditions, the maximum final DMSO concentration in the assay was 0.5%.
Plates are sealed with TopSeal-A, vortexed gently and incubated at room temperature for 2 hours. The reaction is arrested by filtering samples through pre-soaked (0.3% polyethyleneimine, 2 h) Multiscreen Harvest plates using a Tomtec® Harvester (Tomtec, Hamden, Conn.)), washed 9 times with 500 μL of cold 50 mM Tris-HCl (pH 7.4), and than plates are air-dried in a fumehood for 30 minutes. A bottom seal is applied to the plates prior to the addition of 25 μL of MicroScint-0™ to each well.
Data are analyzed by GraphPad™ Prism (GraphPad Software, San Diego, Calif.) using a variable slope non-linear regression analysis.
where total and non-specific binding represent the cpm obtained in the absence or presence of 1 μM motilin, respectively.
On to `CCC[C@@H]1NC(=O)[C@@H](C(C)C)NC(=O)[C@@H](Cc2cccc(OC)c2)NCCOc2ccccc2CCCNC1=O` [Compound 165], for which the inhibition constant (Ki) (commonly the dissociation constant of the complex between target and ligand, obtained from inhibition or displacement) lay within 1 to 100 nM.
With `CC(C)C[C@@H]1NC(=O)[C@@H](C(C)C)NC(=O)[C@@H](Cc2ccc(F)cc2)NCCOc2ccccc2CCCNC1=O` [Compound 133], the Ki lay in the range of 1 to 100 nM.
Regarding `CCC[C@@H]1NC(=O)[C@@H](C(C)C)NC(=O)[C@@H](Cc2ccc(C)cc2)NCCOc2ccccc2CCCNC1=O` [Compound 164], the Ki lay within 100 to 1000 nM.
Consider `COc1ccc(CC2NCCOc3ccccc3CCCNC(=O)C(CO)NC(=O)C(C(C)C)NC2=O)cc1` (stereo not drawn) [Compound 178], for which the Ki lay in the range of 100 to 1000 nM.
Take `CCCC1NC(=O)C(C(C)C)NC(=O)C(Cc2ccc(-c3ccccc3)cc2)NCCOc2ccccc2CCCNC1=O` (stereo not drawn) [Compound 87]: the Ki is 100 to 1000 nM.
The same measure, in the same setting: the figure for `CCCC1NC(=O)CCNC(=O)C(Cc2ccc(O)cc2)NCCOc2ccccc2CCCNC1=O` (stereo not drawn) [Compound 96] is 1000 to 10000 nM.
Same read-out and setting: the figure for `CC(C)C1NC(=O)C(Cc2cccs2)NCCOc2ccccc2CCCNC(=O)C(CN)NC1=O` (stereo not drawn) [Compound 154] is 100 to 1000 nM.
`CCC1NC(=O)C(C(C)C)NC(=O)C(Cc2ccc(O)cc2)NCCOc2ccccc2C=CCNC1=O` (stereo not drawn) [Compound 12]: the Ki was in the range of 100 to 1000 nM.
On the same count and under the same terms, the figure for `CCCC1NC(=O)C(Cc2ccc3ccccc3c2)NC(=O)C(Cc2ccc(O)cc2)NCCOc2ccccc2C=CCNC1=O` (stereo not drawn) [Compound 76] is 1000 to 10000 nM; for `CC(C)CC1NC(=O)C(C(C)C)NC(=O)C(Cc2ccc(F)cc2)NCCOc2cccnc2CCCNC1=O` (stereo not drawn) [Compound 140] it is 100 to 1000 nM; for `CCC[C@@H]1NC(=O)[C@@H](C(C)C)NC(=O)[C@@H](Cc2cccc(Cl)c2)NCCOc2ccccc2CCCNC1=O` [Compound 15] it is 1 to 100 nM.
On to `CCC[C@@H]1NC(=O)[C@@H](C(C)C)NC(=O)[C@@H](Cc2cccc(C)c2)NCCOc2ccccc2CCCNC1=O` [Compound 163], for which the inhibition constant Ki lay within 1 to 100 nM.
Take `CCCC1NC(=O)C(C(C)CC)NC(=O)C(Cc2ccc(O)cc2)NCCOc2ccccc2CCCNC1=O` (stereo not drawn) [Compound 160]: the Ki was in the range of 100 to 1000 nM.
Turning to `CCCC1NC(=O)C(C(C)CC)NC(=O)C(Cc2ccc(O)cc2)NCCOc2ccccc2CCCNC1=O` (stereo not drawn) [Compound 159], the inhibition constant Ki was 100 to 1000 nM.
Take `CC(C)C1NC(=O)C(Cc2ccc(F)cc2)NCCOc2ccccc2CCCNC(=O)C(CN)NC1=O` (stereo not drawn) [Compound 157]: the Ki was 100 to 1000 nM.
Regarding `CC(C)CC1NC(=O)C(C(C)C)NC(=O)C(Cc2cccs2)NCCOc2ccccc2CCCNC1=O` (stereo not drawn) [Compound 130], the inhibition constant (Ki) is 100 to 1000 nM.
As to `CC(C)[C@H]1NC(=O)[C@@H](Cc2ccc(O)cc2)NCCOc2ccccc2CCCNC(=O)[C@H](CC2CC2)NC1=O` [Compound 26], the Ki fell in the range of 1 to 100 nM.
In the case of `CCCC1NC(=O)C(Cc2ccc(O)cc2)NC(=O)C(Cc2ccc(O)cc2)NCCOc2ccccc2C=CCNC1=O` (stereo not drawn) [Compound 34], the inhibition constant (Ki) lay in the range of 100 to 1000 nM.
With `CC(C)C[C@@H]1NC(=O)[C@@H](C(C)C)NC(=O)[C@@H](Cc2ccc(O)cc2)NCCOc2ccccc2/C=C/CNC1=O` [Compound 10], the Ki is 1 to 100 nM.
Take `CCC[C@@H]1NC(=O)[C@@H](C(C)C)NC(=O)[C@@H](Cc2cccc3ccccc23)NCCOc2ccccc2CCCNC1=O` [Compound 23]: the Ki is 1 to 100 nM.
For the molecule `CC(C)C1NC(=O)C(Cc2ccc(O)cc2)NCCOc2ccccc2C=CCNC(=O)C(Cc2ccc(O)cc2)NC1=O` (stereo not drawn) [Compound 58], the inhibition constant (Ki) fell in the range of 100 to 1000 nM.
As to `CC(C)CC1NC(=O)C(C(C)C)NC(=O)C(Cc2ccccc2)NCCOc2ccccc2C=CCNC1=O` (stereo not drawn) [Compound 20], the inhibition constant (Ki) was 100 to 1000 nM.
`CCCC1NC(=O)C(C(C)C)NC(=O)C(Cc2ccc(OC(C)(C)C)cc2)NCCOc2ccccc2CCCNC1=O` (stereo not drawn) [Compound 88]: the inhibition constant (Ki) was in the range of 1000 to 10000 nM.
Consider `CC(C)C1NC(=O)C(Cc2ccc(O)cc2)NCCOc2ccccc2C=CCNC(=O)C(Cc2ccc3ccccc3c2)NC1=O` (stereo not drawn) [Compound 72], for which the Ki lay in the range of 100 to 1000 nM.
In the case of `CCCC1NC(=O)C(C(C)C)NC(=O)C(Cc2cscn2)NCCOc2ccccc2CCCNC1=O` (stereo not drawn) [Compound 27], the Ki fell in the range of 100 to 1000 nM.
On the same count and under the same terms, the figure for `CCCC1NC(=O)C(C2CC2)NC(=O)C(Cc2ccc(O)cc2)NCCOc2ccccc2CCCNC1=O` (stereo not drawn) [Compound 125] is 100 to 1000 nM.
Turning to `CCCCC1NC(=O)C(Cc2ccc(O)cc2)NCCOc2ccccc2C=CCNC(=O)C(CCC)NC1=O` (stereo not drawn) [Compound 77], the Ki was in the range of 1000 to 10000 nM.
The same measure, in the same setting: as for `CC(C)C1NC(=O)C(Cc2ccc(Cl)cc2)NCCOc2cccnc2CCCNC(=O)C(CC2CC2)NC1=O` (stereo not drawn) [Compound 150], the figure is 100 to 1000 nM; as for `CCCC1NC(=O)C(C(C)C)NC(=O)C(Cc2ccc(O)cc2)NCCOc2cccc(c2)OCCNC1=O` (stereo not drawn) [Compound 71], 100 to 1000 nM.
Take `CCCC1NC(=O)C(C(C)C)NC(=O)CC(Cc2cccc(Cl)c2)NCCOc2ccccc2CCCNC1=O` (stereo not drawn) [Compound 169]: the Ki lay within 100 to 1000 nM.
In the case of `CC(C)[C@H]1NC(=O)[C@@H](Cc2ccc(Cl)cc2)NCCOc2ccccc2CCCNC(=O)[C@H](CN)NC1=O` [Compound 156], the inhibitory constant (Ki) was in the range of 1 to 100 nM.
Consider `CCCC1NC(=O)C(C(C)C)NC(=O)C(Cc2ccccc2OC)NCCOc2ccccc2CCCNC1=O` (stereo not drawn) [Compound 166], for which the inhibition constant (Ki) lay in the range of 100 to 1000 nM.
Same read-out and setting: the figure for `CC(C)CC1NC(=O)C(C(C)C)NC(=O)C(Cc2ccc(Cl)cc2)NCCOc2cccnc2CCCNC1=O` (stereo not drawn) [Compound 139] is 100 to 1000 nM; for `CC(C)C1NC(=O)C(Cc2ccc(O)cc2)NCCOc2ccccc2C=CCNC(=O)C(CO)NC1=O` (stereo not drawn) [Compound 57] it is 100 to 1000 nM.
On to `CCC[C@@H]1NC(=O)[C@@H](C(C)C)NC(=O)[C@@H](Cc2ccc(OC)cc2)NCCOc2ccccc2CCCNC1=O` [Compound 22], for which the Ki was in the range of 1 to 100 nM.
